{"source": "patent US20190350879A1", "about": "“METHOD OF TREATING PAIN USING RACEMIC MIXTURE OF S-KETAMINE AND R-KETAMINE” (priority 2017, published 2019)", "origin": "cited, not measured here", "key": {"[1]": {"tested_on": "N-Methyl-D-Aspartate receptors", "settings": "S(+)ketamine relative to R-isomer; target not named"}, "[2]": {"settings": "S(+)ketamine compared to R-isomer"}}, "data": [{"smiles": "CN[C@]1(c2ccccc2Cl)CCCCC1=O", "note": "[S(+)ketamine]", "values": [{"measurement": "affinity, times greater", "setting": "[1]", "value": "approximately four"}, {"measurement": "psychotomimetic side effects", "setting": "[2]", "value": "greater psychotomimetic side effects"}]}]}
